Results: article PMC12546632, “The role of cytochrome bc1 inhibitors in future tuberculosis treatment regimens” (Nature Communications, 2025)
Values joined by “and” are separate entries in the source; they are usually repeats but may differ in a detail not shown here. Equal values may be shown once.

System: JNJ-2901- and JNJ-4052-resistant M. tuberculosis ΔcydAB strains (QcrA/QcrB mutants)
Type: cell-based, Mycobacterium tuberculosis

NNC(=O)c1ccncc1 [Isoniazid, isoniazid]
MIC50 fold change from parental strain: 1 fold and 0.5 fold
